In test [1] the test system is poly(dG-dC).poly(dG-dC) (DNA, polymer) GC. As to the kind of experiment: fluorescence titration, Scatchard, McGhee-von Hippel. The following applies: Na+ (citrate-phosphate 15 mM); 15 mM CP buffer pH 6.8, 25 °C; non cooperative; DNA as nucleotide phosphate; per base.
In test [2] the test system is poly(dA-dT).poly(dA-dT) (DNA, polymer) AT. Kind of test: competition dialysis. To be noted: Na+ (citrate-phosphate 15 mM); apparent; 15 mM CP buffer pH 6.8, 25 °C; 150 µM nucleotide phosphate, 1 µM harmalol; per base.
Test [3] has the same test system. As to the kind of experiment: fluorescence titration, Scatchard, McGhee-von Hippel. To be noted: Na+ (citrate-phosphate 15 mM); 15 mM CP buffer pH 6.8, 25 °C; non cooperative; DNA as nucleotide phosphate; per base.
Test [4] concerns poly(dA).poly(dT) (DNA, polymer) A/T. Kind of test: competition dialysis. The following applies: Na+ (citrate-phosphate 15 mM); apparent; 15 mM CP buffer pH 6.8, 25 °C; 150 µM nucleotide phosphate, 1 µM harmalol; per base.
In test [5] the test system is poly(dA-dT).poly(dA-dT) (DNA, polymer) AT. Kind of test: ITC, polynucleotide titrated into harmalol. To be noted: 15 mM Na+; CP buffer pH 6.8, 25 °C; single-site fit; text b28 prints 0.40±0.02×10^5, Table 3 agrees with 0.44×10^6; per base. On the technique in general: Isothermal titration calorimetry measures the heat released or taken up as one component is titrated into another.

For test [6], the system named is poly(dA).poly(dT) (DNA, polymer) A/T. As to the kind of experiment: UV melting, 260 nm. To be noted: Na+ (citrate-phosphate 15 mM); 15 mM CP buffer pH 6.8; 20 µM polymer; harmalol at saturation (rmax); per base.
Test [7] relates to poly(dG-dC).poly(dG-dC) (DNA, polymer) GC. As to the kind of experiment: absorbance titration, Scatchard, McGhee-von Hippel. To be noted: Na+ (citrate-phosphate 15 mM); 15 mM CP buffer pH 6.8, 25 °C; non cooperative; DNA as nucleotide phosphate; per base.
For test [8], the system named is poly(dA).poly(dT) (DNA, polymer) A/T. As to the kind of experiment: ITC, polynucleotide titrated into harmalol. The following applies: 15 mM Na+; CP buffer pH 6.8, 25 °C; single-site fit; 20 µM harmalol; per base.
Test [9] deals with poly(dG-dC).poly(dG-dC) (DNA, polymer) GC. Kind of test: ITC, polynucleotide titrated into harmalol. The following applies: 15 mM Na+; CP buffer pH 6.8, 25 °C; single-site fit; 20 µM harmalol; per base.
Test [10] has as its system poly(dA).poly(dT) (DNA, polymer) A/T. Kind of test: absorbance titration, Scatchard, McGhee-von Hippel. The following applies: Na+ (citrate-phosphate 15 mM); 15 mM CP buffer pH 6.8, 25 °C; cooperative, intrinsic Ki 0.02±0.01 × 10^6, ω 14.0; DNA as nucleotide phosphate; per base.
Test [11] relates to poly(dG).poly(dC) (DNA, polymer) G/C. As to the kind of experiment: UV melting, 260 nm. To be noted: Na+ (citrate-phosphate 15 mM); 15 mM CP buffer pH 6.8; 20 µM polymer; harmalol at saturation (rmax); per base.
In test [12] the test system is poly(dA-dT).poly(dA-dT) (DNA, polymer) AT. As to the kind of experiment: absorbance titration, Scatchard, McGhee-von Hippel. The following applies: Na+ (citrate-phosphate 15 mM); 15 mM CP buffer pH 6.8, 25 °C; non cooperative; DNA as nucleotide phosphate; per base.
For test [13] the test system is unchanged. As to the kind of experiment: UV melting, 260 nm. To be noted: Na+ (citrate-phosphate 15 mM); 15 mM CP buffer pH 6.8; 20 µM polymer; harmalol at saturation (rmax); per base.
In test [14] the test system is poly(dG).poly(dC) (DNA, polymer) G/C. Kind of test: fluorescence titration, Scatchard, McGhee-von Hippel. The following applies: Na+ (citrate-phosphate 15 mM); 15 mM CP buffer pH 6.8, 25 °C; cooperative, intrinsic constant, ω 75; DNA as nucleotide phosphate; per base.
Test [15] has the same test system. As to the kind of experiment: absorbance titration, Scatchard, McGhee-von Hippel. The following applies: Na+ (citrate-phosphate 15 mM); 15 mM CP buffer pH 6.8, 25 °C; cooperative, intrinsic Ki 0.002±0.001 × 10^6, ω 84; DNA as nucleotide phosphate; per base.
The test system of test [16] is poly(dA).poly(dT) (DNA, polymer) A/T. As to the kind of experiment: fluorescence titration, Scatchard, McGhee-von Hippel. To be noted: Na+ (citrate-phosphate 15 mM); 15 mM CP buffer pH 6.8, 25 °C; cooperative, intrinsic constant, ω 20; DNA as nucleotide phosphate; per base.
The subject of test [17] is poly(dG).poly(dC) (DNA, polymer) G/C. Kind of test: ITC, polynucleotide titrated into harmalol. To be noted: 15 mM Na+; CP buffer pH 6.8, 25 °C; single-site fit; 20 µM harmalol; per base.
The test system is the same in test [18]. Kind of test: competition dialysis. The following applies: Na+ (citrate-phosphate 15 mM); apparent; 15 mM CP buffer pH 6.8, 25 °C; 150 µM nucleotide phosphate, 1 µM harmalol; per base.
Test [19] has as its system poly(dG-dC).poly(dG-dC) (DNA, polymer) GC. As to the kind of experiment: competition dialysis. The following applies: Na+ (citrate-phosphate 15 mM); apparent; 15 mM CP buffer pH 6.8, 25 °C; 150 µM nucleotide phosphate, 1 µM harmalol; per base.

As to `CC1=NCCc2c1[nH]c1cc(O)ccc21`, the Kf is on record as 4.60±0.07 × 10^6 M^-1 in [1], 0.45±0.04 × 10^6 M^-1 in [3], 0.002±0.001 × 10^6 M^-1 in test [14] and 0.015±0.001 × 10^6 M^-1 in test [16]. Further, the Kapp is 4.56±0.04 × 10^5 M^-1 in [2], 3.39±0.02 × 10^5 M^-1 in test [4], 2.19±0.01 × 10^5 M^-1 in test [18] and 13.10±0.07 × 10^5 M^-1 in test [19]. Moreover, the Kb was 0.44±0.02 × 10^6 M^-1 in [5], 0.30±0.02 × 10^6 M^-1 in [8], 3.86±0.07 × 10^6 M^-1 in test [9] and 0.22±0.03 × 10^6 M^-1 in [17]. Further, the ΔTm in test [6] was determined as 6 °C; in test [11] it was 6 °C; in [13], 8 °C. In addition, the Ki in test [7] is on record as 4.20±0.05 × 10^6 M^-1; in test [12] it was 0.43±0.03 × 10^6 M^-1. Besides, the Kiω was 0.28±0.01 × 10^6 M^-1 in test [10] and 0.18±0.01 × 10^6 M^-1 in [15].

The ΔTm is the change in melting temperature against a reference sample.

The values above are taken from article PMC4172587 (2014).
